In ChEMBL document CHEMBL1135869, “Peptide inhibitors of CDK2-cyclin A that target the cyclin recruitment-site: structural variants of the C-terminal Phe” (Bioorg Med Chem Lett, 2002):
Starred links: 1 amine or outer side, 2 acyl side, 3 side chain; linkers in the order of their positions; H or OH if unused. Non-standard residues stand in square brackets, D forms with d. Residues, ends and D or L forms follow the SMILES beside them. X3 = CC(=O)O[C@@H](c1ccccc1)[C@@H](N[*:1])C(=O)[*:2]; X1 = CC(=O)O[C@H](c1ccccc1)[C@H](N[*:1])C(=O)[*:2]; X2 = O=C(/C(=C/c1ccccc1)N[*:1])[*:2]; Phe(ol) = N[C@H](CO)Cc1ccccc1

Tests used:
[1] = Inhibition of p21WAF1 peptide recruitment to CDK 2/cyclin-A complex
[2] = Inhibition of competitive binding to cyclin-A kinase complex
[3] = target: Cyclin-dependent kinase 2/cyclin A (Homo sapiens, UniProt P24941); assay: In vitro inhibition of CDK2-cyclin A kinase activity on retinoblastoma protein; format: protein-complex assay

Row | SMILES | IC50 [1] [nM] | IC50 [2] [nM] | IC50 [3] [nM]
1 | CC[C@H](C)[C@H](NC(=O)[C@H](CC(C)C)NC(=O)[C@H](CCCN=C(N)N)NC(=O)[C@H](CCCN=C(N)N)NC(=O)[C@H](CCCCN)NC(=O)[C@H](CO)NC(=O)[C@@H](N)Cc1c[nH]cn1)C(=O)N[C@H](C(=O)O)[C@H](OC(C)=O)c1ccccc1 (H-HSKRRLI[X1]-OH) | 800 | 1320 | 
2 | CC[C@H](C)[C@H](NC(=O)[C@H](CC(C)C)NC(=O)[C@H](CCCN=C(N)N)NC(=O)[C@H](CCCN=C(N)N)NC(=O)[C@H](CCCCN)NC(=O)[C@H](CO)NC(=O)[C@@H](N)Cc1c[nH]cn1)C(=O)N/C(=C\c1ccccc1)C(=O)O (H-HSKRRLI[X2]-OH) | 220 | 200 | 1300
3 | CC[C@H](C)[C@H](NC(=O)[C@H](CC(C)C)NC(=O)[C@H](CCCN=C(N)N)NC(=O)[C@H](CCCN=C(N)N)NC(=O)[C@H](CCCCN)NC(=O)[C@H](C)NC(=O)[C@@H](N)Cc1c[nH]cn1)C(=O)N[C@H](C(=O)O)[C@H](O)c1ccccc1 | 28 | 74 | 
4 | CC[C@H](C)[C@H](NC(=O)[C@H](CC(C)C)NC(=O)[C@H](CCCN=C(N)N)NC(=O)[C@H](CCCN=C(N)N)NC(=O)[C@H](CCCCN)NC(=O)[C@H](C)NC(=O)[C@@H](N)Cc1c[nH]cn1)C(=O)N[C@@H](C(=O)O)[C@@H](O)c1ccccc1 | 110 | 120 | 
5 | CC[C@H](C)[C@H](NC(=O)[C@H](CC(C)C)NC(=O)[C@H](CCCN=C(N)N)NC(=O)[C@H](CCCN=C(N)N)NC(=O)[C@H](CCCCN)NC(=O)[C@H](CO)NC(=O)[C@@H](N)Cc1c[nH]cn1)C(=O)N[C@@H](Cc1ccccc1)C(N)=O |  | 4300 | 3400
6 | CC[C@H](C)[C@H](NC(=O)[C@H](CC(C)C)NC(=O)[C@H](CCCNC(=N)N)NC(=O)[C@H](CCCNC(=N)N)NC(=O)[C@H](CCCCN)NC(=O)[C@H](C)NC(=O)[C@@H](N)Cc1cnc[nH]1)C(=O)N[C@@H](C(=O)O)[C@@H](OC(C)=O)c1ccccc1 |  |  | 200
7 | CC[C@H](C)[C@H](NC(=O)[C@H](CC(C)C)NC(=O)[C@H](CCCN=C(N)N)NC(=O)[C@H](CCCN=C(N)N)NC(=O)[C@H](CCCCN)NC(=O)[C@H](C)NC(=O)[C@@H](N)Cc1c[nH]cn1)C(=O)N[C@@H](C(=O)O)[C@@H](OC(C)=O)c1ccccc1 (H-HAKRRLI[X3]-OH) | 160 | 190 | 
8 | CC[C@H](C)[C@H](NC(=O)[C@H](CC(C)C)NC(=O)[C@H](CCCN=C(N)N)NC(=O)[C@H](CCCN=C(N)N)NC(=O)[C@H](CCCCN)NC(=O)[C@H](C)NC(=O)[C@@H](N)Cc1c[nH]cn1)C(=O)N/C(=C\c1ccccc1)C(=O)O (H-HAKRRLI[X2]-OH) | 54 | 60 | 70
9 | CC[C@H](C)[C@H](NC(=O)[C@H](CC(C)C)NC(=O)[C@H](CCCN=C(N)N)NC(=O)[C@H](CCCN=C(N)N)NC(=O)[C@H](CCCCN)NC(=O)[C@H](C)NC(=O)[C@@H](N)Cc1c[nH]cn1)C(=O)N[C@H](CO)Cc1ccccc1 (H-HAKRRLI[Phe(ol)]) | 18 | 22 | 
10 | CC[C@H](C)[C@H](NC(=O)[C@H](CC(C)C)NC(=O)[C@H](CCCN=C(N)N)NC(=O)[C@H](CCCN=C(N)N)NC(=O)[C@H](CCCCN)NC(=O)[C@H](CO)NC(=O)[C@@H](N)Cc1c[nH]cn1)C(=O)N[C@H](C(=O)O)[C@H](O)c1ccccc1 | 190 | 250 | 560
11 | CC[C@H](C)[C@H](NC(=O)[C@H](CC(C)C)NC(=O)[C@H](CCCN=C(N)N)NC(=O)[C@H](CCCN=C(N)N)NC(=O)[C@H](CCCCN)NC(=O)[C@H](CO)NC(=O)[C@@H](N)Cc1c[nH]cn1)C(=O)N[C@H](CO)Cc1ccccc1 | 310 |  | 430
12 | CC[C@H](C)[C@H](NC(=O)[C@H](CC(C)C)NC(=O)[C@H](CCCN=C(N)N)NC(=O)[C@H](CCCN=C(N)N)NC(=O)[C@H](CCCCN)NC(=O)[C@H](CO)NC(=O)[C@@H](N)Cc1c[nH]cn1)C(=O)N[C@@H](C(=O)O)[C@@H](O)c1ccccc1 | 710 | 760 | 1200
13 | CC[C@H](C)[C@H](NC(=O)[C@H](CC(C)C)NC(=O)[C@H](CCCN=C(N)N)NC(=O)[C@H](CCCN=C(N)N)NC(=O)[C@H](CCCCN)NC(=O)[C@H](C)NC(=O)[C@@H](N)Cc1c[nH]cn1)C(=O)N[C@H](C(=O)O)[C@H](OC(C)=O)c1ccccc1 (H-HAKRRLI[X1]-OH) | 240 | 230 | 320
14 | CC[C@H](C)[C@H](NC(=O)[C@H](CC(C)C)NC(=O)[C@H](CCCN=C(N)N)NC(=O)[C@H](CCCN=C(N)N)NC(=O)[C@H](CCCCN)NC(=O)[C@H](CO)NC(=O)[C@@H](N)Cc1c[nH]cn1)C(=O)N[C@@H](C(=O)O)[C@@H](OC(C)=O)c1ccccc1 (H-HSKRRLI[X3]-OH) | 600 | 1820 | 
